Several values for one entry are separate records, joined by “and”; a condition that tells them apart may be missing. Equal entries are not always repeated. Where two headings read alike, the source gives them in different places.
Experiments:
Varroa mites = assay: Experiment 5 cage comparison of LiCl, NaCl and MgCl2: dead mites; type: in vivo, Varroa destructor; details: for Number of dead mites, Day 1 / Number of dead mites, Day 2 / Number of dead mites, Day 3 / Number of dead mites, Day 4 / Number of dead mites, Day 5 / Number of dead mites, Day 6 / Number of dead mites, Day 7 / Number of dead mites, Sum: 25 mites per cage, mean of 6 cages (LiCl) or 3 cages; for Number of dead mites, Sum: 25 mM in 70% sucrose, days 1-7
Procedure: (§1) In a further experiment LiCl, NaCl and MgCl2 were selected and their acaricidal activity compared. The experiment was performed in cages of 50 bees, to each of which 25 mites were added. Bees in control cages received sucrose only. LiCl, NaCl or MgCl2 were added to 70% sucrose solutions at a final concentration of 25 mM each and fed to the bees for seven days. Survival rate of bees and mites were monitored daily. Dead bees and mites were removed from the cages.
(§2) The numbers represent mean values derived from 6 cages. […] Numbers for NaCl, MgCl2 and control represent mean values derived from 3 separate cages.

bees [1] = details: 50 bees per cage; for Number of dead bees, Day 1 / Number of dead bees, Day 2 / Number of dead bees, Day 3 / Number of dead bees, Day 4 / Number of dead bees, Day 5 / Number of dead bees, Day 6 / Number of dead bees, Day 7: 25 mM in 70% sucrose for seven days; for Number of dead bees, Day 1 / Number of dead bees, Day 2 / Number of dead bees, Day 3 / Number of dead bees, Day 4 / Number of dead bees, Day 5 / Number of dead bees, Day 6 / Number of dead bees, Day 7 / Number of dead bees, Sum: mean of 6 cages (LiCl) or 3 cages; for Number of dead bees, Sum: days 1-7
Procedure: as §1, §2

bees [2] = assay: Experiment 4 cage test of MgCl2 (50 bees, 20 mites): bee health; type: in vivo, Apis mellifera; details: 100 mM in sucrose syrup
Procedure: To test the activity of bivalent ions we dissolved MgCl2 in sucrose syrup at a final concentration of 100 mM. 2 cages of 50 bees to which 20 mites were added were fed with sucrose syrup only and syrup containing 100 mM MgCl2.

bees [3] = details: for impact on bee viability: 4 mM, 7-day treatment period, data not shown; for Number of dead bees, Day 1 / Number of dead bees, Day 2 / Number of dead bees, Day 3 / Number of dead bees, Day 4 / Number of dead bees, Day 5 / Number of dead bees, Day 6 / Number of dead bees, Day 7: Li-salt 25 mM in sucrose syrup for 7 days; for Number of dead bees, Day 1 / Number of dead bees, Day 2 / Number of dead bees, Day 3 / Number of dead bees, Day 4 / Number of dead bees, Day 5 / Number of dead bees, Day 6 / Number of dead bees, Day 7 / Number of dead bees, Sum: 50 bees per cage, mean of three replicates; for Number of dead bees, Sum: Li-salt 25 mM in sucrose syrup, days 1-7
Source text: (§3) The bees were fed with Li-salt/sucrose solutions for 7 days. Survival rate of bees and mites were monitored daily and dead bees or mites were removed.

Varroa destructor = details: for effect on mites during the 7-day treatment period: 4 mM, data not shown; for Number of dead mites, Day 1 / Number of dead mites, Day 2 / Number of dead mites, Day 3 / Number of dead mites, Day 4 / Number of dead mites, Day 5 / Number of dead mites, Day 6 / Number of dead mites, Day 7: Li-salt 25 mM in sucrose syrup for 7 days; for Number of dead mites, Day 1 / Number of dead mites, Day 2 / Number of dead mites, Day 3 / Number of dead mites, Day 4 / Number of dead mites, Day 5 / Number of dead mites, Day 6 / Number of dead mites, Day 7 / Number of dead mites, Sum: 25 mites per cage, mean of three replicates; for Number of dead mites, Sum: Li-salt 25 mM in sucrose syrup, days 1-7
Source text: as §3

[4] = 25 mM in 70% sucrose for seven days

| Structure (SMILES) | Number of dead mites, Day 1 (Varroa mites; [4]) | Number of dead mites, Day 2 (Varroa mites; [4]) | impact on bee viability (bees [3]) | Number of dead bees, Day 1 (bees [3]) | Number of dead bees, Day 2 (bees [3]) | Number of dead bees, Day 3 (bees [3]) | Number of dead bees, Day 4 (bees [3]) | Number of dead bees, Day 5 (bees [3]) | Number of dead bees, Day 6 (bees [3]) | Number of dead bees, Day 7 (bees [3]) | Number of dead bees, Sum (bees [3]) | effect on mites during the 7-day treatment period (Varroa destructor) | Number of dead mites, Day 1 (Varroa destructor) | Number of dead mites, Day 2 (Varroa destructor) | Number of dead mites, Day 3 (Varroa destructor) | Number of dead mites, Day 4 (Varroa destructor) | Number of dead mites, Day 5 (Varroa destructor) | Number of dead mites, Day 6 (Varroa destructor) | Number of dead mites, Day 7 (Varroa destructor) | Number of dead mites, Sum (Varroa destructor) | further results |
| --- | --- | --- | --- | --- | --- | --- | --- | --- | --- | --- | --- | --- | --- | --- | --- | --- | --- | --- | --- | --- | --- |
| [Cl-].[Cl-].[Mg+2] [MgCl2] | 0.3 | 1.0 | – | – | – | – | – | – | – | – | – | – | – | – | – | – | – | – | – | – | Number of dead mites, Day 3 (Varroa mites; [4]): 1.0; Number of dead mites, Day 4 (Varroa mites; [4]): 3.7; Number of dead mites, Day 5 (Varroa mites; [4]): 0.7; Number of dead mites, Day 6 (Varroa mites; [4]): 0.0; Number of dead mites, Day 7 (Varroa mites; [4]): 0.0; Number of dead mites, Sum (Varroa mites): 6.7; Number of dead bees, Day 1 (bees [1]): 0.0; Number of dead bees, Day 2 (bees [1]): 18.0; Number of dead bees, Day 3 (bees [1]): 18.3; Number of dead bees, Day 4 (bees [1]): 9.3; Number of dead bees, Day 5 (bees [1]): 4.3; Number of dead bees, Day 6 (bees [1]): 0.0; Number of dead bees, Day 7 (bees [1]): 0.0; Number of dead bees, Sum (bees [1]; 25 mM in 70% sucrose): 50.0; time after which all bees were dead (bees [1]; 25 mM in 70% sucrose): 5 days; effect on bee health (bees [2]): impair bee health substantially |
| [Cl-].[Na+] [NaCl] | 0.0 | 0.3 | – | – | – | – | – | – | – | – | – | – | – | – | – | – | – | – | – | – | acaricidal effect (Varroa mites; [4]): fails to exhibit an acaricidal effect; Number of dead mites, Day 3 (Varroa mites; [4]): 0.0; Number of dead mites, Day 4 (Varroa mites; [4]): 0.0; Number of dead mites, Day 5 (Varroa mites; [4]): 0.3; Number of dead mites, Day 6 (Varroa mites; [4]): 0.7; Number of dead mites, Day 7 (Varroa mites; [4]): 1.0; Number of dead mites, Sum (Varroa mites): 2 and 2.3; Number of dead bees, Day 1 (bees [1]): 0.0; Number of dead bees, Day 2 (bees [1]): 0.0; Number of dead bees, Day 3 (bees [1]): 0.0; Number of dead bees, Day 4 (bees [1]): 0.3; Number of dead bees, Day 5 (bees [1]): 0.0; Number of dead bees, Day 6 (bees [1]): 0.0; Number of dead bees, Day 7 (bees [1]): 1.3; Number of dead bees, Sum (bees [1]; 25 mM in 70% sucrose): 2 and 1.7 |
| O=C([O-])CC(O)(CC(=O)[O-])C(=O)[O-].[Li+].[Li+].[Li+] [Li-citrate, lithium citrate] | – | – | without a significant negative impact on bee viability | 0.0 | 0.0 | 0.3 | 0.0 | 0.7 | 1.7 | 0.3 | 3.0 | killed all mites | 0.3 | 10.0 | 14.7 | 0.0 | 0.0 | 0.0 | 0.0 | 25.0 | – |
| CC(O)C(=O)[O-].[Li+] (centres unmarked) [Li-lactate, lithium lactate] | – | – | without a significant negative impact on bee viability | 0.3 | 0.0 | 0.0 | 0.7 | 2.0 | 0.3 | 1.7 | 5.0 | killed all mites | 0.7 | 14.0 | 6.3 | 4.0 | 0.0 | 0.0 | 0.0 | 25.0 | – |
| O=S(=O)([O-])[O-].[Li+].[Li+] [Li-sulfate, lithium sulfate] | – | – | without a significant negative impact on bee viability | 0.0 | 0.0 | 0.0 | 1.0 | 3.7 | 1.7 | 0.0 | 6.3 | killed all mites | 0.7 | 18.0 | 5.7 | 0.7 | 0.0 | 0.0 | 0.0 | 25.0 | – |
| O=C([O-])[O-].[Li+].[Li+] [Li-carbonate, lithium carbonate] | – | – | without a significant negative impact on bee viability | 0.7 | 0.0 | 0.0 | 0.0 | 0.0 | 0.3 | 0.7 | 1.7 | killed all mites | 0.3 | 3.0 | 20.0 | 1.7 | 0.0 | 0.0 | 0.0 | 25.0 | – |

— patent US10980238B2, “Alkali metal salt for use in treatment of varroa destructor mite infestation of honey bees” (Universität Hohenheim, priority 2015, dated 2021)
